Experimental data published in patent publication US11203574B2 (BioCryst Pharmaceuticals, Inc., priority 2014, dated 2021).

Each compound was assayed against human plasma kallikrein (Homo sapiens (Human), UniProt P03952) (assay: Plasma kallikrein activity assay (chromogenic substrate S2302)). Details: 2 nM kallikrein, 80 μM S2302, 30° C., pH 7.8; Ki by Cheng-Prusoff equation; values given as ranges; read-out: Ki.
human plasma kallikrein, sequence (P03952 whole entry, looked up): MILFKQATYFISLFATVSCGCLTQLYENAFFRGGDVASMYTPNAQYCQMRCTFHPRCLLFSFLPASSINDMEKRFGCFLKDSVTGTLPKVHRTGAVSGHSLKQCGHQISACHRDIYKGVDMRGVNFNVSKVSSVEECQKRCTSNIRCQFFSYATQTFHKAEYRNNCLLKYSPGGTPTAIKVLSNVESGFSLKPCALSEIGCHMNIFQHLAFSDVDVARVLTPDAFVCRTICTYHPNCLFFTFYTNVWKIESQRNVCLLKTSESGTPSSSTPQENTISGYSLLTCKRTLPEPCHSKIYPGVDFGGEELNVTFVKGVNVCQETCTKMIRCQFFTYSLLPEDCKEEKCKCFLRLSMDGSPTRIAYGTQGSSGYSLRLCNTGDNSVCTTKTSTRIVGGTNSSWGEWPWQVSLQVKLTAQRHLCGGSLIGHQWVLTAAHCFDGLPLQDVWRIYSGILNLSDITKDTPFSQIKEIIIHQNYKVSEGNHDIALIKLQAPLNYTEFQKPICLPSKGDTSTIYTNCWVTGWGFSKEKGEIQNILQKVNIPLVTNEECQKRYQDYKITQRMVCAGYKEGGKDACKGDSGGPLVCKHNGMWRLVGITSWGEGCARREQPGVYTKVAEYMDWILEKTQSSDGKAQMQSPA
human plasma kallikrein, sequence (P03952 whole entry partner, looked up): as the sequence (P03952 whole entry, looked up) above
Type: biochemical
Protocol: Plasma Kallikrein Activity Assay.
The effect of compounds of the invention on human plasma kallikrein activity was determined using the chromogenic substrates (DiaPharma Group, Inc., West Chester, Ohio, USA). In these experiments, 2 nM kallikrein (Enzyme Research Laboratories, South Bend, Ind., USA) was incubated with 80 μM S2302 (H-D-Pro-Phe-Arg-p-nitroaniline) in the absence or presence of increasing concentrations of compounds of the invention in a final volume of 200 μL Tris-HCl buffer (200 mM NaCl; mM CaCl2; 50 mM Tris-HCl, pH 7.8).
Data were analyzed using SigmaPlot software (Systat Software, Inc., San Jose, Calif., USA) (Four Parameter Logistic Curve).
Work on `Cc1cccc(C(NCC2CC2)c2ccc(F)c(NC(=O)c3cc(C(F)(F)F)nn3-c3cccc(CN)c3)c2)c1` (stereo not drawn) [140e, 1-(3-(aminomethyl)phenyl)-N-(5-(((cyclopropylmethyl)amino)(m-tolyl)methyl)-2-fluorophenyl)-3-(trifluoromethyl)-1H-pyrazole-5-carboxamide] yielded a Ki of 0.0001 to 0.05 µM.
In the case of `COc1cccc(C(NCC2CC2)c2ccc(F)c(NC(=O)c3cc(C(F)(F)F)nn3-c3cccc(CN)c3)c2)c1` (stereo not drawn) [141e, 1-(3-(aminomethyl)phenyl)-N-(5-(((cyclopropylmethyl)amino)(3-methoxyphenyl)methyl)-2-fluorophenyl)-3-(trifluoromethyl)-1H-pyrazole-5-carboxamide], the Ki is reported as 0.0001 to 0.05 µM.
`Cc1cc(C(=O)Nc2cccc(C(NCC3CC3)c3ccccc3)c2)n(-c2cccc(CN)c2)n1` (stereo not drawn) [143l, 1-(3-(aminomethyl)phenyl)-N-(3-((cyclopropylmethylamino)(phenyl)methyl)phenyl)-3-methyl-1H-pyrazole-5-carboxamide] was tested, and the Ki was 0.0001 to 0.05 µM.
`CC(C)NC(c1ccccc1)c1cccc(NC(=O)c2cc(C(F)(F)F)nn2-c2cccc(CN)c2)c1` (stereo not drawn) [144d, 1-(3-(Aminomethyl)phenyl)-N-(3-((isopropylamino)(phenyl)methyl)phenyl)-3-(trifluoromethyl)-1H-pyrazole-5-carboxamide] gave a Ki of 0.0001 to 0.05 µM.
`NCc1cccc(-n2nc(C(F)(F)F)cc2C(=O)Nc2cccc(C(NCC3CC3)c3cc(O)ccc3O)c2)c1` (stereo not drawn) [146g, 1-(3-(aminomethyl)phenyl)-N-(3-((cyclopropylmethylamino)(2,5-dihydroxyphenyl)methyl)phenyl)-3-(trifluoromethyl)-1H-pyrazole-5-carboxamide] showed a Ki of 0.0001 to 0.05 µM.
Work on `CC(=O)Nc1ccc(C(OCC2CC2)c2cccc(NC(=O)c3cc(C(F)(F)F)nn3-c3cccc(CN)c3)c2)cc1` (stereo not drawn) [147e, N-(3-((4-acetamidophenyl)(cyclopropylmethoxy)methyl)phenyl)-1-(3-(aminomethyl)phenyl)-3-(trifluoromethyl)-1H-pyrazole-5-carboxamide] yielded a Ki of 0.0001 to 0.05 µM.
`NCc1cccc(-n2nc(C(F)(F)F)cc2C(=O)Nc2cccc(C(OCC3CC3)c3ccc(O)cc3)c2)c1` (stereo not drawn) [149b, 1-(3-(aminomethyl)phenyl)-N-(3-((cyclopropylmethoxy)(4-hydroxyphenyl)methyl)phenyl)-3-(trifluoromethyl)-1H-pyrazole-5-carboxamide] was tested, and the Ki was 0.0001 to 0.05 µM.
`NCc1cccc(-n2nc(C(F)(F)F)cc2C(=O)Nc2cccc(C(NCC3CC3)c3cccc(O)c3O)c2)c1` (stereo not drawn) [150f, 1-(3-(aminomethyl)phenyl)-N-(3-((cyclopropylmethylamino)(2,3-dihydroxyphenyl)methyl)phenyl)-3-(trifluoromethyl)-1H-pyrazole-5-carboxamide] gave a Ki of 0.0001 to 0.05 µM.
Work on `COc1cccc(C(NCC2CC2)c2cccc(NC(=O)c3cc(C(F)(F)F)nn3-c3cccc(CN)c3)c2)c1O` (stereo not drawn) [151g, 1-(3-(Aminomethyl)phenyl)-N-(3-((cyclopropylmethylamino)(2-hydroxy-3-methoxyphenyl)methyl)phenyl)-3-(trifluoromethyl)-1H-pyrazole-5-carboxamide] yielded a Ki of 0.0001 to 0.05 µM.
`N#Cc1cccc(C(NCC2CC2)c2cccc(NC(=O)c3cc(C(F)(F)F)nn3-c3cccc(CN)c3)c2)c1` (stereo not drawn) [152d, 1-(3-(aminomethyl)phenyl)-N-(3-((3-cyanophenyl)(cyclopropylmethylamino)methyl)phenyl)-3-(trifluoromethyl)-1H-pyrazole-5-carboxamide] was tested, and the Ki was 0.0001 to 0.05 µM.
For `NCc1cccc(-n2nc(C(F)(F)F)cc2C(=O)Nc2cc(C(NCC3CC3)c3ccc(C(N)=O)cc3)ccc2F)c1` (stereo not drawn) [153b, 1-(3-(aminomethyl)phenyl)-N-(5-((4-carbamoylphenyl)(cyclopropylmethyl-amino)methyl)-2-fluorophenyl)-3-(trifluoromethyl)-1H-pyrazole-5-carboxamide], the Ki was 0.0001 to 0.05 µM.
With `COc1ccc(C(NCC2CC2)c2cccc(NC(=O)c3cc(C(F)(F)F)nn3-c3cccc(CN)c3)c2)c2ccccc12` (stereo not drawn) [154e, 1-(3-(aminomethyl)phenyl)-N-(3-((cyclopropylmethylamino)(4-methoxynaphthalen-1-yl)methyl)phenyl)-3-(trifluoromethyl)-1H-pyrazole-5-carboxamide] the Ki was 0.0001 to 0.05 µM.
Compound `NCc1cccc(C(NCC2CC2)c2ccc(F)c(NC(=O)c3cc(C(F)(F)F)nn3-c3cccc(CN)c3)c2)c1` (stereo not drawn) [155c, 1-(3-(aminomethyl)phenyl)-N-(5-((3-(aminomethyl)phenyl)(cyclopropylmethylamino)methyl)-2-fluorophenyl)-3-(trifluoromethyl)-1H-pyrazole-5-carboxamide] has a Ki of 0.0001 to 0.05 µM.
Work on `COC(CCC1CC1)(c1cccnc1)c1cccc(NC(=O)c2cc(C(F)(F)F)nn2-c2cccc(CN)c2)c1` (stereo not drawn) [156c, 1-(3-(aminomethyl)phenyl)-N-(3-(3-cyclopropyl-1-methoxy-1-(pyridin-3-yl)propyl)phenyl)-3-(trifluoromethyl)-1H-pyrazole-5-carboxamide] yielded a Ki of 0.0001 to 0.05 µM.
`CN1CCc2c(ccc(NC(=O)c3cc(C(F)(F)F)nn3-c3cccc(CN)c3)c2F)C1` [164e, 1-(3-(aminomethyl)phenyl)-N-(5-fluoro-2-methyl-1,2,3,4-tetrahydroisoquinolin-6-yl)-3-(trifluoromethyl)-1H-pyrazole-5-carboxamide] gave a Ki of 0.0001 to 0.05 µM.
`CCC(CO)NC(c1ccccc1)c1cccc(NC(=O)c2cc(C(F)(F)F)nn2-c2cccc(CN)c2)c1` (stereo not drawn) [168b, 1-(3-(Aminomethyl)phenyl)-N-(3-(((1-hydroxybutan-2-yl)amino)(phenyl)methyl)phenyl)-3-(trifluoromethyl)-1H-pyrazole-5-carboxamide] showed a Ki of 0.0001 to 0.05 µM.
Compound `NCc1cccc(-n2nc(C(F)(F)F)cc2C(=O)Nc2cccc(C(NC3CCC3)c3ccccc3)c2)c1` (stereo not drawn) [188b, 1-(3-(Aminomethyl)phenyl)-N-(3-((cyclobutylamino)(phenyl)methyl)phenyl)-3-(trifluoromethyl)-1H-pyrazole-5-carboxamide] has a Ki of 0.0001 to 0.05 µM.
Compound `NCc1cccc(-n2nc(C(F)(F)F)cc2C(=O)Nc2cccc(C(NCC3CC3)c3cccc4c3OCO4)c2)c1` (stereo not drawn) [192f, 1-(3-(aminomethyl)phenyl)-N-(3-(benzo[d][1,3]dioxol-4-yl(cyclopropylmethylamino)methyl)phenyl)-3-(trifluoromethyl)-1H-pyrazole-5-carboxamide] has a Ki of 0.0001 to 0.05 µM.
For `Cc1ccccc1C(NCC1CC1)c1cccc(NC(=O)c2cc(C(F)(F)F)nn2-c2cccc(CN)c2)c1` (stereo not drawn) [193f, 1-(3-(Aminomethyl)phenyl)-N-(3-(((cyclopropylmethyl)amino)(o-tolyl)methyl)phenyl)-3-(trifluoromethyl)-1H-pyrazole-5-carboxamide], the Ki was 0.0001 to 0.05 µM.
In the case of `NCc1cccc(-n2nc(C(F)(F)F)cc2C(=O)Nc2cccc(C(NCC3CC3)c3cccc(F)c3)c2)c1` (stereo not drawn) [195f, 1-(3-(aminomethyl)phenyl)-N-(3-(((cyclopropylmethyl)amino)(3-fluorophenyl)methyl)phenyl)-3-(trifluoromethyl)-1H-pyrazole-5-carboxamide], the Ki is reported as 0.0001 to 0.05 µM.
For `NCc1cccc(-n2nc(C(F)(F)F)cc2C(=O)Nc2cccc(C(NCC3CC3)c3ccc(F)cc3F)c2)c1` (stereo not drawn) [196f, 1-(3-(aminomethyl)phenyl)-N-(3-(((cyclopropylmethyl)amino)(2,4-difluorophenyl)methyl)phenyl)-3-(trifluoromethyl)-1H-pyrazole-5-carboxamide], the Ki was 0.0001 to 0.05 µM.
`NCc1cccc(-n2nc(C(F)(F)F)cc2C(=O)Nc2cccc(C(NCC3CC3)c3cc(F)ccc3F)c2)c1` (stereo not drawn) [197f, 1-(3-(aminomethyl)phenyl)-N-(3-(((cyclopropylmethyl)amino)(2,5-difluorophenyl)methyl)phenyl)-3-(trifluoromethyl)-1H-pyrazole-5-carboxamide] was tested, and the Ki was 0.0001 to 0.05 µM.
`NCc1cccc(-n2nc(C(F)(F)F)cc2C(=O)Nc2cccc(C(NCC3CC3)c3c(F)cccc3F)c2)c1` (stereo not drawn) [198f, 1-(3-(aminomethyl)phenyl)-N-(3-(((cyclopropylmethyl)amino)(2,6-difluorophenyl)methyl)phenyl)-3-(trifluoromethyl)-1H-pyrazole-5-carboxamide] gave a Ki of 0.0001 to 0.05 µM.
`NCc1cccc(-n2nc(C(F)(F)F)cc2C(=O)Nc2cccc(C(NCC3CC3)c3ccc(Cl)cc3)c2)c1` (stereo not drawn) [199f] gave a Ki of 0.0001 to 0.05 µM.
`NCc1cccc(-n2nc(C(F)(F)F)cc2C(=O)Nc2cccc(C(NCC3CC3)c3ccc(Cl)cc3Cl)c2)c1` (stereo not drawn) [200f, 1-(3-(aminomethyl)phenyl)-N-(3-((2,4-dichlorophenyl)((cyclopropylmethyl)amino)methyl)phenyl)-3-(trifluoromethyl)-1H-pyrazole-5-carboxamide] showed a Ki of 0.0001 to 0.05 µM.
`Cc1ccc(C(NCC2CC2)c2cccc(NC(=O)c3cc(C(F)(F)F)nn3-c3cccc(CN)c3)c2)c(C)c1` (stereo not drawn) [201f, 1-(3-(aminomethyl)phenyl)-N-(3-(((cyclopropylmethyl)amino)(2,4-dimethylphenyl)methyl)phenyl)-3-(trifluoromethyl)-1H-pyrazole-5-carboxamide] gave a Ki of 0.0001 to 0.05 µM.
In the case of `Cc1ccc(C)c(C(NCC2CC2)c2cccc(NC(=O)c3cc(C(F)(F)F)nn3-c3cccc(CN)c3)c2)c1` (stereo not drawn) [202f, 1-(3-(aminomethyl)phenyl)-N-(3-(((cyclopropylmethyl)amino)(2,5-dimethylphenyl)methyl)phenyl)-3-(trifluoromethyl)-1H-pyrazole-5-carboxamide], the Ki is reported as 0.0001 to 0.05 µM.
`NCc1cccc(-n2nc(C(F)(F)F)cc2C(=O)Nc2cccc(C(NCC3CC3)c3ccc(O)c(Br)c3)c2)c1` (stereo not drawn) [207j, 1-(3-(Aminomethyl)phenyl)-N-(3-((3-bromo-4-hydroxyphenyl)(cyclopropylmethylamino)methyl)phenyl)-3-(trifluoromethyl)-1H-pyrazole-5-carboxamide] showed a Ki of 0.0001 to 0.05 µM.
`NCc1cccc(-n2nc(C(F)(F)F)cc2C(=O)Nc2cccc(C(CCC3CC3)n3ccccc3=O)c2)c1` (stereo not drawn) [247c, 1-(3-(aminomethyl)phenyl)-N-(3-(3-cyclopropyl-1-(2-oxopyridin-1(2H)-yl)propyl)phenyl)-3-(trifluoromethyl)-1H-pyrazole-5-carboxamide] gave a Ki of 0.0001 to 0.05 µM.
`NCc1cccc(-n2nc(C(F)(F)F)cc2C(=O)Nc2cccc(C(CCC3CC3)N3CCCC3=O)c2)c1` (stereo not drawn) [247e, 1-(3-(aminomethyl)phenyl)-N-(3-(3-cyclopropyl-1-(2-oxopyrrolidin-1-yl)propyl)phenyl)-3-(trifluoromethyl)-1H-pyrazole-5-carboxamide] showed a Ki of 0.0001 to 0.05 µM.
